Data taken from patent US20160008376A1, “Compositions, Methods and Uses for Treating Gender-Biased Immune Disorders” (Biocopea Limited, priority 2014, published 2016).

Tested on: antibodies directed to the CH47 region of the P1/P2 ribosomal protein
Assay: Hormone added to sera of immunized female mice, antibody signal for the CH47 peptide
Assay type: binding
Conditions: overall
Description: In a second series of experiments, Testosterone (0 ng/mL, 0.5 ng/mL, 1 ng/mL, 2 ng/mL, and 4 ng/mL) or Progesterone (0 ng/mL, 2 ng/mL, 4 ng/mL, 8 ng/mL, and 14 ng/mL) was added to the sera of female mice immunized with a variety of different Chagas peptides (Formulation 1 or 2) that either include (B) or excluded (A) specifically peptide CH47. […] At low hormone concentrations there was an increase in the antibody signal with a subsequent decrease as the concentration of hormone further increased.

SMILES	decrease in the antibody response (hormone 0-4 ng/mL) [%]	decrease in the IgG response (hormone 0-14 ng/mL) [%]
C[C@]12CC[C@H]3[C@@H](CCC4=CC(=O)CC[C@@]43C)[C@@H]1CC[C@@H]2O [Testosterone]	24.4	–
CC(=O)[C@H]1CC[C@H]2[C@@H]3CCC4=CC(=O)CC[C@]4(C)[C@H]3CC[C@]12C [Progesterone, pregn-4-ene-3,20-dione]	–	26.2
